According to patent US10807986B2, “Fused pyrimidine compound or salt thereof” (TAIHO PHARMACEUTICAL CO., LTD., priority 2016, dated 2020):

assay: Evaluation of stability in liver microsome; details: mouse liver microsome 0.25 mg/mL, test compound 1 μM, 37° C., 30 minutes

SMILES	Remaining (%)
COCc1ccc(NC(=O)c2c(-c3ccc(CO)cc3)n(C3(C)CC3)c3ncnc(N)c23)cc1 [Example 145, 4-amino-6-(4-(hydroxymethyl)phenyl)-N-(4-(methoxymethyl)phenyl)-7-(1-methylcyclopropyl)-7H-pyrrolo[2,3-d]pyrimidine-5-carboxamide]	72%
COCc1ccc(NC(=O)c2c(C#Cc3ccccc3OC)n(C3(C)CC3)c3ncnc(N)c23)cc1 [Example 113, 4-amino-N-(4-(methoxymethyl)phenyl)-6-((2-methoxyphenyl)ethynyl)-7-(1-methylcyclopropyl)-7H-pyrrolo[2,3-d]pyrimidine-5-carboxamide]	79%
COCc1ccc(NC(=O)c2c(C#Cc3cnn(C)c3C)n(C3(C)CC3)c3ncnc(N)c23)cc1 [Example 182, 4-amino-6-((1,5-dimethyl-1H-pyrazol-4-yl)ethynyl)-N-(4-(methoxymethyl)phenyl)-7-(1-methylcyclopropy1)-7H-pyrrolo[2,3-d]pyrimidine-5-carboxamide]	61%
COCc1ccc(NC(=O)c2c(C#Cc3cnc4[nH]ccc4c3)n(C3(C)CC3)c3ncnc(N)c23)cc1 [Example 128, 6-((1H-pyrrolo[2,3-b]pyridin-5-yl)ethynyl)-4-amino-N-(4-(methoxymethyl)phenyl)-7-(1-methylcyclopropyl)-7H-pyrrolo[2,3-d]pyrimidine-5-carboxamide]	82%
COCc1ccc(NC(=O)c2c(C#Cc3cnn(C(C)C)c3)n(C3(C)CC3)c3ncnc(N)c23)cc1 [Example 144, 4-amino-6-((1-isopropyl-1H-pyrazol-4-yl)ethynyl)-N-(4-(methoxymethyl)phenyl)-7-(1-methylcyclopropyl)-7H-pyrrolo[2,3-d]pyrimidine-5-carboxamide]	79%
COCc1ccc(NC(=O)c2c(C#CCN3CCN(C)CC3)n(C3(C)CC3)c3ncnc(N)c23)cc1 [Example 132, 4-amino-N-(4-(methoxymethyl)phenyl)-7-(1-methylcyclopropyl)-6-(3-(4-methylpiperazin-1-yl)prop-1-yn-1-yl)-7H-pyrrolo[2,3-d]pyrimidine-5-carboxamide]	77%
COCc1ccc(NC(=O)c2c(C#Cc3ccc(Cl)nc3)n(C3(C)CC3)c3ncnc(N)c23)cc1 [Example 120, 4-amino-6-((6-chloropyridin-3-yl)ethynyl)-N-(4-(methoxymethyl)phenyl)-7-(1-methylcyclopropyl)-7H-pyrrolo[2,3-d]pyrimidine-5-carboxamide]	72%
COCc1ccc(NC(=O)c2c(OCC(C)OC)n(C3(C)CC3)c3ncnc(N)c23)cc1 (centres unmarked) [Example 100, 4-amino-N-(4-(methoxymethyl)phenyl)-6-(2-methoxypropoxy)-7-(1-methylcyclopropyl)-7H-pyrrolo[2,3-d]pyrimidine-5-carboxamide]	76%
COCc1ccc(NC(=O)c2c(C#Cc3ccc(OC)cc3)n(C3(C)CC3)c3ncnc(N)c23)cc1 [Example 165, 4-amino-N-(4-(methoxymethyl)phenyl)-6-((4-methoxypheny)ethynyl)-7-(1-methylcyclopropyl)-7H-pyrrolo[2,3-d]pyrimidine-5-carboxamide]	90%
COCc1ccc(NC(=O)c2c(OC[C@@H](C)OC)n(C3(C)CC3)c3ncnc(N)c23)cc1 [Example 96, (R)-4-amino-N-(4-(methoxymethyl)phenyl)-6-(2-methoxypropoxy)-7-(1-methylcyclopropyl)-7H-pyrrolo[2,3-d]pyrimidine-5-carboxamide]	71%
COCc1ccc(NC(=O)c2c(C#Cc3cccs3)n(C3(C)CC3)c3ncnc(N)c23)cc1 [Example 119, 4-amino-N-(4-(methoxymethyl)phenyl)-7-(1-methylcyclopropyl)-6-(thiophen-2-ylethynyl)-7H-pyrrolo[2,3-d]pyrimidine-5-carboxamide]	70%
COCc1ccc(NC(=O)c2c(C#Cc3cccnc3)n(C3(C)CC3)c3ncnc(N)c23)cc1 [Example 94, 4-amino-N-[4-(methoxymethyl)phenyl]-7-(1-methylcyclopropyl)-6-(pyridin-3-ylethynyl)-7H-pyrrolo[2,3-d]pyrimidine-5-carboxamide]	60%
COCc1ccc(NC(=O)c2c(C#Cc3ccccn3)n(C3(C)CC3)c3ncnc(N)c23)cc1 [Example 172, 4-amino-N-[4-(methoxymethyl)phenyl]-7-(1-methylcyclopropyl)-6-(pyridin-2-ylethynyl)-7H-pyrrolo[2,3-d]pyrimidine-5-carboxamide]	61%
COCc1ccc(NC(=O)c2c(C#CC(O)C3CC3)n(C3(C)CC3)c3ncnc(N)c23)cc1 (centres unmarked) [Example 104, 4-amino-6-(3-cyclopropyl-3-hydroxyprop-1-yn-1-yl)-N-(4-(methoxymethyl)phenyl)-7-(1-methylcyclopropyl)-7H-pyrrolo[2,3-d]pyrimidine-5-carboxamide]	52%
COCc1ccc(NC(=O)c2c(OCCN3CCCC3=O)n(C3(C)CC3)c3ncnc(N)c23)cc1 [Example 136, 4-amino-N-(4-(methoxymethyl)phenyl)-7-(1-methylcyclopropyl)-6-(2-(2-oxopyrrolidin-1-yl)ethoxy)-7H-pyrrolo[2,3-d]pyrimidine-5-carboxamide]	78%
COCc1ccc(NC(=O)c2c(C#CCC(C)(C)O)n(C3(C)CC3)c3ncnc(N)c23)cc1 [Example 86, 4-amino-6-(4-hydroxy-4-methylpent-1-yn-1-yl)-N-[4-(methoxymethyl)phenyl]-7-(1-methylcyclopropyl)-7H-pyrrolo[2,3-d]pyrimidine-5-carboxamide]	66%
COCc1ccc(NC(=O)c2c(OC[C@@H]3CCCO3)n(C3(C)CC3)c3ncnc(N)c23)cc1 [Example 97, (S)-4-amino-N-(4-(methoxymethyl)phenyl)-7-(1-methylcyclopropyl)-6-((tetrahydrofuran-2-yl)methoxy)-7H-pyrrolo[2,3-d]pyrimidine-5-carboxamide]	70%
CCn1cc(C#Cc2c(C(=O)Nc3ccc(COC)cc3)c3c(N)ncnc3n2C2(C)CC2)cn1 [Example 118, 4-amino-6-((1-ethyl-1H-pyrazol-4-yl)ethynyl)-N-(4-(methoxymethyl)phenyl)-7-(1-methylcyclopropyl)-7H-pyrrolo[2,3-d]pyrimidine-5-carboxamide]	73%
COCCN(C)CC#Cc1c(C(=O)Nc2ccc(COC)cc2)c2c(N)ncnc2n1C1(C)CC1 [Example 197, 4-amino-6-(3-((2-methoxyethyl)(methyl)amino)prop-1-yn-1-yl)-N-(4-(methoxymethyl)phenyl)-7-(1-methylcyclopropyl)-7H-pyrrolo[2,3-d]pyrimidine-5-carboxamide]	52%
COCc1ccc(NC(=O)c2c(-c3ccc(CO)nc3)n(C3(C)CC3)c3ncnc(N)c23)cc1 [Example 179, 4-amino-6-(6-(hydroxymethyl)pyridin-3-yl)-N-(4-(methoxymethyl)phenyl)-7-(1-methylcyclopropyl)-7H-pyrrolo[2,3-d]pyrimidine-5-carboxamide]	85%
COCc1ccc(NC(=O)c2c(C(C)=O)n(C3(C)CC3)c3ncnc(N)c23)cc1 [Example 64, 6-acetyl-4-amino-N-(4-(methoxymethyl)phenyl)-7-(1-methylcyclopropyl)-7H-pyrrolo[2,3-d]pyrimidine-5-carboxamide]	89%
COCc1ccc(NC(=O)c2c(C#Cc3ccccc3)n(C3(C)CC3)c3ncnc(N)c23)cc1 [Example 162, 4-amino-N-(4-(methoxymethyl)phenyl)-7-(1-methylcyclopropyl)-6-(phenylethynyl)-7H-pyrrolo[2,3-d]pyrimidine-5-carboxamide]	76%
COCc1ccc(NC(=O)c2c(C#Cc3cnc[nH]3)n(C3(C)CC3)c3ncnc(N)c23)cc1 [Example 191, 6-((1H-imidazol-5-yl)ethynyl)-4-amino-N-(4-(methoxymethyl)phenyl)-7-(1-methylcyclopropyl)-7H-pyrrolo[2,3-d]pyrimidine-5-carboxamide]	53%
COCc1ccc(NC(=O)c2cn(C(C)(C)C)c3ncnc(N)c23)cc1 [Example 2, 4-amino-7-(tert-butyl)-N-(4-(methoxymethyl)phenyl)-7H-pyrrolo[2,3-d]pyrimidine-5-carboxamide]	64%
CCOc1c(C(=O)Nc2ccc(-c3ccco3)cc2)c2c(N)ncnc2n1C1(C)CC1 [Example 116, 4-amino-6-ethoxy-N-(4-(furan-2-yl)phenyl)-7-(1-methylcyclopropyl)-7H-pyrrolo[2,3-d]pyrimidine-5-carboxamide]	55%
CCOc1c(C(=O)Nc2ccc(COC)cc2)c2c(N)ncnc2n1C1(C)CC1 [Example 127, 4-amino-6-ethoxy-N-(4-(methoxymethyl)phenyl)-7-(1-methylcyclopropyl)-7H-pyrrolo[2,3-d]pyrimidine-5-carboxamide]	70%
COCc1ccc(NC(=O)c2c(OCC(C)C)n(C3(C)CC3)c3ncnc(N)c23)cc1 [Example 99, 4-amino-6-isobutoxy-N-(4-(methoxymethyl)phenyl)-7-(1-methylcyclopropyl)-7H-pyrrolo[2,3-d]pyrimidine-5-carboxamide]	51%
COCc1ccc(NC(=O)c2c(C#CC3CCOCC3)n(C3(C)CC3)c3ncnc(N)c23)cc1 [Example 87, 4-amino-N-[4-(methoxymethyl)phenyl]-7-(1-methylcyclopropyl)-6-((tetrahydro-2H-pyran-4-yl)ethynyl)-7H-pyrrolo[2,3-d]pyrimidine-5-carboxamide]	63%
COCc1ccc(NC(=O)c2c(C#Cc3cncc(C#N)c3)n(C3(C)CC3)c3ncnc(N)c23)cc1 [Example 195, 4-amino-6-((5-cyanopyridin-3-yl)ethynyl)-N-(4-(methoxymethyl)phenyl)-7-(1-methylcyclopropyl)-7H-pyrrolo[2,3-d]pyrimidine-5-carboxamide]	70%
